# Laboratory results reported in patent publication US12636285B2 (ViiV Healthcare Company, priority 2019, dated 2026).
# Where “and” joins values, the source holds several entries; their conditions need not be identical. Identical values can stand only once. Like-named read-outs stand apart in the source and are kept apart here.
# What was measured:
# [1] = Genotoxicity: bacterial reverse mutation assay, mouse lymphoma assay, in vivo rodent micronucleus assay
# [2] = Pharmacokinetics in specific populations (renal, hepatic impairment, UGT1A1 genotype); assay type: in vivo, human; conditions: for exposure higher than matched controls: n=8
# Text: No dosage adjustment is necessary for patients with mild to severe renal impairment (not on dialysis).
# No dosage adjustment is necessary for patients with mild to moderate hepatic impairment (Child-Pugh Score A or B).
# No dose adjustment is required in subjects with UGT1A1 polymorphisms.
# [3] = Fertility studies in rats; assay type: in vivo, rat; conditions: up to 400 mg/kg/day, dose with maternal toxicity
# [4] = tested on: HIV-1 group M (subtypes A, B, C, D, F, G, and H) primary isolates; test: Antiviral activity against group M primary isolates; assay type: cell-based; conditions: Human immunodeficiency virus 1, read-out: EC50 values
# [5] = QT crossover trial of oral rilpivirine in healthy adults; assay type: in vivo, human
# Text: The maximum mean time-matched (95% upper confidence bound) differences in QTcF interval from placebo after baseline correction was 2.0 (5.0) msec (i.e., below the threshold of clinical concern).
# [6] = Phase 3 clinical trials of oral rilpivirine (rash); assay type: in vivo, human
# Text: According to another aspect of the main embodiment, precautions are taken prior to and during treatment with the Combination. Severe skin and hypersensitivity reactions have been reported during postmarketing experience with oral rilpivirine-containing regimens including cases of Drug Reaction with Eosinophilia and Systemic Symptoms (DRESS). While some skin reactions were accompanied by constitutional symptoms such as fever, other skin reactions were associated with organ dysfunctions, including elevations in hepatic serum biochemistries.
# [7] = cited from earlier work
# [8] = Binding to human plasma proteins; assay type: in vitro ADME; conditions: read-out: % Bound to human plasma proteins (converted)
# [9] = in vivo
# Text: The observed hepatocellular findings in mice may be rodent specific.
# [10] = Mass balance studies, single-dose oral [14C] drug; assay type: in vivo, human; conditions: single-dose oral [14C] drug
# [11] = tested on: human cellular DNA polymerases α, β, and γ; test: Inhibition of human cellular DNA polymerases; assay type: biochemical
# [12] = Pharmacokinetic properties of the components of the Combination (Table 6); parameters: species or system human; conditions: in vivo
# [13] = Lactating rats, exposure of pups through milk; assay type: in vivo, rat; conditions: administered to lactating rats
# Text: The Centers for Disease Control and Prevention recommends that HIV-1-infected mothers in the United States not breastfeed their infants to avoid risking postnatal transmission of HIV-1 infection. It is not known if the components of the Combination are present in human breast milk, affect human milk production, or have effects on the breastfed infant. […] Animal Data: Cabotegravir: […] Rilpivirine: […]
# [14] = tested on: HIV-1 with NNRTI substitutions; test: Cross-resistance of rilpivirine, NNRTI substitutions; assay type: cell-based
# HIV-1111B = test: Antiviral activity in an acutely infected T-cell line; assay type: cell-based, HIV-1; conditions: Human immunodeficiency virus 1, read-out: median EC50
# group O primary isolates = test: Antiviral activity against group O primary isolates; assay type: cell-based, HIV-1; conditions: Human immunodeficiency virus 1, read-out: EC50 values
# [15] = Multiple-dose pharmacokinetics after monthly IM injections, population PK post-hoc estimates FLAIR and ATLAS; assay type: in vivo, human; conditions: 600-mg monthly IM injection
# HIV-1 = test: Antiviral activity in combination with other antivirals, cell culture; assay type: cell-based
structure (smiles),measurement,setting,value
"Cc1cc(/C=C/C#N)cc(C)c1Nc1ccnc(Nc2ccc(C#N)cc2)n1 [Rilpivirine, 4-[[4-[[4-[(E)-2-cyanoethenyl]-2,6-dimethylphenyl]amino]-2-pyrimidinyl]amino]benzonitrile]",genotoxicity,[1],not genotoxic
same,exposure higher than matched controls,[2]; mild hepatic impairment (Child-Pugh Score A),47%
same,exposure higher than matched controls,[2]; moderate hepatic impairment (Child-Pugh Score B),5%
same,effect of mild renal impairment on exposure,"[2]; oral rilpivirine, population pharmacokinetic analyses",no clinically relevant effect
same,effects on mating or fertility,[3],no effects on mating or fertility
same,EC50,[4],0.07 nM to 1.01 nM and 3e-05 µg/mL to 0.00037 µg/mL
same,maximum mean time-matched (95% upper confidence bound) difference in QTcF interval from placebo after baseline correction,"[5]; oral 25 mg once daily, steady state",2.0 (5.0) msec
same,maximum mean time-matched (95% upper confidence bound) difference in QTcF interval from placebo after baseline correction,[5]; oral 75 mg once daily,10.7 (15.3) msec
same,maximum mean time-matched (95% upper confidence bound) difference in QTcF interval from placebo after baseline correction,[5]; oral 300 mg once daily,23.3 (28.4) msec
same,Grade 4 rash,[6],no Grade 4 rash was reported
same,"treatment-related rashes with at least Grade 2 severity, subjects",[6],3%
same,prevalence of birth defects in live births,[7]; first trimester exposure to rilpivirine-containing regimens,0.9%
same,prevalence of birth defects in live births,[7]; second/third trimester exposure to rilpivirine-containing regimens,1.24%
same,fraction unbound,[8],0.003
same,carcinogenicity,[9]; mouse,positive for hepatocellular neoplasms
same,carcinogenicity,[9]; rat,not carcinogenic
same,% of dose excreted as total 14C in feces,[10],85%
same,% of dose excreted as total 14C in urine,[10],6%
same,% of dose excreted as unchanged drug in feces,[10],(26) %
same,% of dose excreted as unchanged drug in urine,[10],(<1) %
same,"inhibition of human cellular DNA polymerases α, β, and γ",[11],does not inhibit
same,Tmax,"[12]; human, im, intramuscular injection, read-out: Tmax, median (converted)",3 to 4 days
same,half-life,"[12]; human, im, intramuscular injection, read-out: t1/2 (absorption rate limited), mean",91 to 196 days
same,Major route of elimination,[12],Metabolism
same,Metabolic pathways,[12],CYP3A
same,presence in milk,[13],present in milk
same,susceptibility with K103N substitution by itself,[14],did not show reduced susceptibility
same,EC50,HIV-1111B,0.73 nM and 0.00027 µg/mL
same,EC50,group O primary isolates,2.88 nM to 8.45 nM and 0.00106 µg/mL to 0.0031 µg/mL
same,"Ctrough, geometric mean",[15],82.2 ng/mL
same,AUC,"[15]; human, in vivo, read-out: AUCtau, geometric mean",65600 ng·h/mL
same,Cmax,"[15]; human, in vivo, read-out: Cmax, geometric mean",116 ng/mL
same,"antiviral activity combined with listed NNRTIs, NRTIs, protease inhibitors, enfuvirtide, maraviroc, or raltegravir",HIV-1,not antagonistic
